Assays:
CDK7/CyclinH/MAT1 = CDK7/CyclinH/MAT1 (Homo sapiens (Human), UniProt P50613); test: In vitro CDK7/CyclinH/MAT1 enzyme activity assay (TR-FRET); format: biochemical; settings: Ulight-MBP peptide, 25° C. 60 minutes
Description: Experimental Example 1: In Vitro CDK7/[…] Enzyme Activity Assay
CDK7/CyclinH/MAT1 was purchased from CARNA. Ulight-MBP peptide, Eu-MBP antibody, and 1× detection buffer were purchased from PerkinElmer. High-purity ATP was purchased from Promega. EDTA was purchased from Sigma. Nivo multimode microplate reader (PerkinElmer).
Preparation of kinase buffer: the kinase buffer containing 50 mM HEPES, 1 mM EDTA, 10 mM MgCl2, 0.01% Brij-35, pH 7.4.
2.38 g of HEPES, 58 mg of EDTA, 406 mg of MgCl2, and 20 mg of Brij-35 were added to 200 mL of buffer, and the pH was adjusted to 7.4.
100 μL of 1 M EDTA stock solution was mixed with 0.625 μL of 1× detection buffer and 1725 μL of distilled water to prepare the stop solution.
Enzyme, Ulight-MBP peptide, ATP, and inhibitors were diluted with the kinase buffer.
The Eu-MBP antibody was diluted to a concentration of 8 nM/L using detection buffer.
The compounds to be tested were 5-fold diluted with a multi-channel pipette to the 8th concentration, i.e., from 40 μM to 0.512 nM, with a final DMSO concentration of 4%. The experiment was set up in duplicate wells. 2.5 μL of each concentration gradient of the inhibitor was added to the microplate, followed by 5 μL of CDK7/CyclinH/MAT1 enzyme (5 ng), and 2.5 μL of a mixture of substrate and ATP (4 mM ATP, 50 nM Ulight-MBP peptide). At this point, the final concentration gradient of the compound was 10 μM diluted to 0.128 nM. The reaction system was reacted at 25° C. for 60 minutes. After the reaction, 5 μL of stop solution was added to each well, and the reaction was continued at 25° C. for 5 minutes. After stopping the reaction, 5 μL of Eu-MBP antibody dilution was added to each well, and the mixture was reacted at 25° C. for 60 minutes. Data were then collected using the PerkinElmer Nivo multimode microplate reader in TR-FRET mode (excitation wavelength: 320 nm, emission wavelength: 665 nm).
Using the equation (Sample−Min)/(Max−Min)*100% to convert the raw data into inhibition rate, the IC50 value may be obtained by curve fitting with four parameters (obtained by “log (inhibitor) vs. response—Variable slope” mode in GraphPad Prism). Table 1 provides the CDK7/CyclinH/MAT1 enzymatic inhibitory activity of the compounds of the present disclosure.

HCC70 cells = test: In vitro HCC70 cell activity assay (CellTiter-Glo proliferation); format: cell-based; settings: Homo sapiens, 96 h, 4 days incubation
Description: Experimental Example 4: In Vitro HCC70 Cell Activity Assay
(§1) 1640 culture medium, fetal bovine serum, penicillin/streptomycin antibiotics were purchased from WISENT. CellTiter-Glo (cell viability chemiluminescence detection reagent) reagent was purchased from Promega. HCC70 cell line was purchased from Nanjing Cobioer Biosciences Co. Ltd. Nivo multimode microplate reader (PerkinElmer).
The HCC70 cells were seeded in a white 96-well plate, with 80 μL of cell suspension per well, containing 6000 HCC70 cells each. The cell plate was incubated overnight in a CO2 incubator. The compounds to be tested were 3-fold diluted with a multi-channel pipette to the 8th concentration, i.e., diluted from 2 mM to […], and the experiment was set up in duplicate wells. 78 μL of culture medium was added to an intermediate plate, and then 2 μL of gradient diluted compound per well was transferred to the intermediate plate according to the corresponding position. After mixing well, the compound was transferred to the cell plate at 20 μL per well. The concentration of the compound transferred to the cell plate ranged from 10 μM to 1.52 nM. The cell plate was incubated in a CO2 incubator for 4 days. Another cell plate was prepared to measure the signal on the day of drug addition as the maximum value (denoted as Max in the equation below) for data analysis. 25 μL of cell viability chemiluminescence detection reagent was added to each well of this cell plate, and incubated at room temperature for 10 minutes to stabilize the luminescent signal. A multimode microplate reader was used for reading.
25 μL of cell viability chemiluminescence detection reagent was added to each well of this cell plate, and incubated at room temperature for 10 minutes to stabilize the luminescent signal. A multimode microplate reader was used for reading.
Using the equation (Sample−Min)/(Max−Min)*100% to convert the raw data into inhibition rate, the IC50 value may be obtained by curve fitting with four parameters (obtained by “log (inhibitor) vs. response—Variable slope” mode in GraphPad Prism). Table 1 provides the inhibitory activity of the compounds of the present disclosure on the proliferation of HCC70 cells.

OVCAR3 cells = test: In vitro OVCAR3 cell activity assay (CellTiter-Glo proliferation); format: cell-based; settings: Homo sapiens, OVCAR-3, 72 h, 3 days incubation
Description: Experimental Example 5: In Vitro OVCAR3 Cell Activity Assay
as §1, with “OVCAR3” for “HCC70”
The OVCAR3 cells were seeded in a white 96-well plate, with 80 μL of cell suspension per well, containing 2000 OVCAR3 cells each. The cell plate was incubated overnight in a CO2 incubator.
The compounds to be tested were 5-fold diluted with a multi-channel pipette to the 8th concentration, i.e., diluted from 200 μM to 0.512 nM, and the experiment was set up in duplicate wells. 78 μL of culture medium was added to an intermediate plate, and then 2 μL of gradient diluted compound per well was transferred to the intermediate plate according to the corresponding position. After mixing well, the compound was transferred to the cell plate at 20 μL per well. The concentration of the compound transferred to the cell plate ranged from 1 μM to 0.0026 nM. The cell plate was incubated in a CO2 incubator for 3 days. Another cell plate was prepared to measure the signal on the day of drug addition as the maximum value (denoted as Max in the equation below) for data analysis. 25 μL of cell viability chemiluminescence detection reagent was added to each well of this cell plate, and incubated at room temperature for 10 minutes to stabilize the luminescent signal. A multimode microplate reader was used for reading. […]
Using the equation (Sample−Min)/(Max−Min)*100% to convert the raw data into inhibition rate, the IC50 value may be obtained by curve fitting with four parameters (obtained by “log (inhibitor) vs. response—Variable slope” mode in GraphPad Prism). Table 1 provides the inhibitory activity of the compounds of the present disclosure on the proliferation of OVCAR3 cells.

CDK7/CyclinH/MAT1, sequence (P50613 whole entry): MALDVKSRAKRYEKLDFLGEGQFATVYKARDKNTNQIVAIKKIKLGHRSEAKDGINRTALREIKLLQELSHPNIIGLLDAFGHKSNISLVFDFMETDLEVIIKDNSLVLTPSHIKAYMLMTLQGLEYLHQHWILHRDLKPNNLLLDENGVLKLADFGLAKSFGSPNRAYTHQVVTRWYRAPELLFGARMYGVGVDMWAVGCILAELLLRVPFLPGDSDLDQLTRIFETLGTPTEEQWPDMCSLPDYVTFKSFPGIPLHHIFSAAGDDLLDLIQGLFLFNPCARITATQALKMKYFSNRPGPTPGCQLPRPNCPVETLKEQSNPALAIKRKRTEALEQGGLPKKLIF
CDK7/CyclinH/MAT1, sequence (P51946 whole entry partner): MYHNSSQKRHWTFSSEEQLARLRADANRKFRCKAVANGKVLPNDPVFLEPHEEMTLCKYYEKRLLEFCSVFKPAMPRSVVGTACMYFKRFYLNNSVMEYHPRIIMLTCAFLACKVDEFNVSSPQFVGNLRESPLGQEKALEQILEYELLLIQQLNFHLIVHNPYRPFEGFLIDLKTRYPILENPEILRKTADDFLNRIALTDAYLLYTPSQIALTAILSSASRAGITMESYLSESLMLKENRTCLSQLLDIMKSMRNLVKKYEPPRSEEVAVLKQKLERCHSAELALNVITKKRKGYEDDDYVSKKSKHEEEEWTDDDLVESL
CDK7/CyclinH/MAT1, sequence (P51948 whole entry partner): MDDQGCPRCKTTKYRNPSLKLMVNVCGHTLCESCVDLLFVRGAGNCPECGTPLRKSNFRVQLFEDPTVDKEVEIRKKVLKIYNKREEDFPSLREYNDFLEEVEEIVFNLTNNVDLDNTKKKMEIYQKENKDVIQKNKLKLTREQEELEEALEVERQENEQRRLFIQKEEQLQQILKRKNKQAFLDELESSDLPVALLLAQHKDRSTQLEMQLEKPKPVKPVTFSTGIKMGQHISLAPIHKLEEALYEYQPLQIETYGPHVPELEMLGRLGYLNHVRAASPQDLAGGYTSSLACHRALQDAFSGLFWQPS

SMILES	IC50 (CDK7/CyclinH/MAT1) [nM]	IC50 (HCC70 cells) [nM]	IC50 (OVCAR3 cells) [nM]
CN1CCCCN2CCCC[C@@H](C2)Nc2ncc(C(F)(F)F)c(n2)-c2c[nH]c3c(P(C)(C)=O)c(ccc23)C1=O [Compound 3]	1.1	1.4	0.6
CN1CCCCN2CCC[C@@H](C2)Nc2ncc(C(F)(F)F)c(n2)-c2c[nH]c3c(P(C)(C)=O)c(ccc23)C1=O [Formate of compound 1]	1	< 1.5	0.3
CP(C)(=O)c1c2ccc3c(c[nH]c13)-c1nc(ncc1C(F)(F)F)N[C@H]1CCCCN(CCCCNC2=O)C1 [Compound 6]	1.4	1.8	0.6
CP(C)(=O)c1c2ccc3c(c[nH]c13)-c1nc(ncc1C(F)(F)F)N[C@H]1CCCN(CCCCNC2=O)C1 [Compound 5]	1.2	1	0.2
CP(C)(=O)c1c2ccc3c(c[nH]c13)-c1nc(ncc1C(F)(F)F)N[C@H]1CCCN(CCCCCCO2)C1 [Compound 4]	1.6	0.6	0.2

From patent US20250109156A1, “INDOLE-CONTAINING MACROCYCLIC COMPOUNDS AND USES THEREOF” (JIANGSU AOSAIKANG PHARMACEUTICAL CO., LTD., priority 2022, published 2025)
